Measured values: US20230285317A1, “DILUENTS, STANDARDIZATION AGENTS AND VISCOSITY CONTROL FOR CANNABINOIDS FORMULATIONS AND METHODS THEREOF” (Scientific Holdings, LLC, priority 2022, published 2023)

Legend:
[1] = Long-term solubility and oil stability of cannabinoids in CBC at room temperature; format: physicochemical; conditions: solid cannabinoid in CBC
Method: In an example embodiment, the solubility of a number of solid cannabinoid isolates in concentrations of 10-80 percent by mass were evaluated in CBC, a viscous oil at room-temperature. Solubility is assessed at 25 degrees (Celsius), after heating to 35 degrees (Celsius), after heating to 70 degrees (Celsius), and after heating to 100 degrees (Celsius). The solubility of cannabinoids with CBC is then observed at room temperature at various time points after formulation to determine long-term solubility and oil stability.
The samples were then heated at an appropriate temperature for 15 total minutes in a water bath and then if any of the CBD remained solid, the vial would be heated for 15 minutes at the next temperature level. A glass thermometer was used to observe and record the temperature. All eight vials corresponding to the eight concentrations of CBD in CBC became a homogeneous mass upon 6-8 minutes heating at 70 degrees (Celsius).
The samples were then heated at an appropriate temperature for 15 total minutes in a water bath and then if any of the CBG remained solid the vial would be heated for 15 minutes at the next temperature level. A glass thermometer was used to observe and record the temperature. […] The viscosity of the solution containing 50% CBG (Vial 13) and 60% CBG (Vial 14) increased upon standing for 35 to 40 minutes at room temperature.
The samples were then heated at an appropriate temperature for 15 total minutes in a water bath and then if any of the CBDA remained solid the vial would be heated for 15 minutes at the next temperature level. A glass thermometer was used to observe and record the temperature. […] But no solids were evident after 4 minutes at 100 degrees (Celsius). […] Vials 20 through 24, containing […] CBDA respectively in 10 weight percent increments, were homogenous liquids after 7 minutes at 100° C. The samples containing 30% CBDA to 60% CBDA became very viscous but remained liquid after 20 minutes at room temperature.
After day 1, the samples containing 10% to 80% CBD appeared more viscous but remained homogeneous oils. […]

[2] = Solubility of CBG in bisabolol; format: physicochemical
From the text: Roughly 10% of the original amount of CBG seemed to remain crystalline in the sample containing 30% CBG. Approximately 20% the original amount of CBG remained crystalline in the sample containing 40% CBG. Approximately 30% of the original amount of CBG remained solid in the sample containing 50% CBG and approximately 40% of the original mass of CBG remained solid in the solution containing 60% CBG.

Structure (SMILES) | concentration up to which CBC gives a flowable and stable oil [1] [%] | concentration of CBG in a flowable and stable oil made with bisabolol [2]
C=C(C)[C@@H]1CCC(C)=C[C@H]1c1c(O)cc(CCCCC)cc1O [CBD, cannabidiol, reference compound] | ≤ 80 | 
C=C(C)[C@@H]1CCC(C)=C[C@H]1c1c(O)cc(CCCCC)c(C(=O)O)c1O [CBDA, cannabidiolic acid] | ≤ 20 | 
CCCCCc1cc(O)c(C/C=C(\C)CCC=C(C)C)c(O)c1 [CBG, cannabigerol] | ≤ 40 | greater than 60%
